Results published in patent publication EP1916248A1, “Furanone derivatives as cysteine protease inhibitors” (MEDIVIR AB, priority 2006, dated 2008).

Legend:
human cathepsin L = human cathepsin L (Homo sapiens, UniProt P07711); assay: Cathepsin L Ki determination (fluorescent substrate H-D-Val-Leu-Lys-AMC); type: biochemical; details: pH5.5
Procedure: The procedure above with the following amendments is used for the determination of Ki for cathepsin L.
The enzyme is commercially available human cathepsin L (for example Calbiochem). The substrate is H-D-Val-Leu-Lys-AMC available from Bachem. The assay buffer is 100 mM sodium acetate 1 mM EDTA, pH5.5) The DMSO stock (10 mM in 100%DMSO) is diluted to 10% in assay buffer. Enzyme is prepared at 5 nM concentration in assay buffer plus 1 mM dithiothreitol just before use. 2 ul of 10 mM inhibitor made up in 100% DMSO is dispensed into row A. 10 ul of 50 uM substrate (=1/200 dilution of 10 mM stock in DMSO, diluted in assay buffer)
Potential inhibitors are screened using the above assay with variable concentrations of test compound. Reactions were initiated by addition of enzyme to buffered solutions of substrate and inhibitor. Ki values were calculated according to equation 1 v0 = (VS)/(KM (1 + (I)/(Ki)) + S) [formula] where v0 is the velocity of the reaction, V is the maximal velocity, S is the concentration of substrate with Michaelis constant of KM, and / is the concentration of inhibitor.
Representative compounds of the invention were assayed for cathepsin K potency and selectivity in the assays above. Note that the cathepsin L and S data is in micromolar, whereas the compounds are so potent against cathepsin K that the results are presented in nanomolar.

human cathepsin S = molecular target: T1, human cathepsin S (Homo sapiens, UniProt P25774); assay: Cathepsin S Ki determination (fluorescent substrate boc-Val-Leu-Lys-AMC); type: biochemical; details: baculovirus-expressed human cathepsin S, pH 6.5
T1 construct: made in house
T1 sequence (P25774 115-331): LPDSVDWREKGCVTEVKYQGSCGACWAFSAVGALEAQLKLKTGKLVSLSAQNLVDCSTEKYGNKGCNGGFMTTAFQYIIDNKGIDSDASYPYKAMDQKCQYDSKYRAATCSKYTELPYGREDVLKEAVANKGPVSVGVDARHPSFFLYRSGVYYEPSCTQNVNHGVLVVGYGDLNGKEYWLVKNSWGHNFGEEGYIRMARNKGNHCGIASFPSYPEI
Procedure: The assay uses baculovirus-expressed human cathepsin S and the boc-Val-Leu-Lys-AMC fluorescent substrate available from Bachem in a 384 well plate format, in which 7 test compounds can be tested in parallel with a positive control comprising a known cathepsin S inhibitor comparator.
280 ul/well of 12.5% DMSO are added to rows B - H of two columns of a 96 deep well polypropylene plate. 70 ul/well of substrate is added to row A. 2 x 250 ul/well of assay buffer (100 mM Na phosphate, 100 mM NaCl, pH 6.5) is added to row A, mixed, and double diluted down the plate to row H.
100 ul/well of assay buffer is added to columns 2-5 and 7-12 of 4 rows of a 96 well V bottom polypropylene plate. 200 ul/well of assay buffer is added to columns 1 and 6.
2 ul of each 10 mM test compound is added to a separate well on row A, columns 1-10. Add 90 ul assay buffer containing 1 mM DTT and 2 nM cathepsin S to each well of rows B-H and 180 ul to row A. Mix row A using a multichannel pipette and double dilute to row G. Mix row H and read in the fluorescent spectrophotometer.
The second test compound is added to column 6 of the top row, the third to column 1 of the second row etc. Add 1 ul of comparator to column 6 of the bottom row. […]
Using the a distributor such as a Multidrop 384, add 30 ul/well to all wells of the assay plate and read in fluorescent spectrophotometer such as an Ascent. […]

[1] = Permeability, transport through Caco-2 cell monolayers; details: human
cathepsin K = molecular target: T2, cathepsin K (Homo sapiens, UniProt P43235); assay: Determination of cathepsin K proteolytic catalytic activity (Ki, fluorogenic peptide substrate); type: biochemical; details: human recombinant enzyme
T2 construct: made in house; host or cells: not fixed: E coli, Pichia or Baculovirus systems named as options
T2 sequence (P43235 115-329): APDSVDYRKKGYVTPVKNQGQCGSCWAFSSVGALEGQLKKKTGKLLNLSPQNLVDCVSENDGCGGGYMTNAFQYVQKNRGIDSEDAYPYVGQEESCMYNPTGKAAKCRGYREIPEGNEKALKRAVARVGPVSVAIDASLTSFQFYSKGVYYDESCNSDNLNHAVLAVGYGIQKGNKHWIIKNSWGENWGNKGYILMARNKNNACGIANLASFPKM
Procedure: Convenient assays for cathepsin K are carried out using human recombinant enzyme, such as that described in PDB.
The recombinant cathepsin K can be expressed in a variety of commercially available expression systems including E coli, Pichia and Baculovirus systems. The purified enzyme is activated by removal of the prosequence by conventional methods.
The enzyme concentration used was 5 nM. The stock substrate solution was prepared at 10 mM in DMSO. […] The total DMSO concentration in the assay was kept below 3%. All assays were conducted at ambient temperature. Product fluorescence (excitation at 390 nm, emission at 460 nm) was monitored with a Labsystems Fluoroskan Ascent fluorescent plate reader.
Potential inhibitors are screened using the above assay with variable concentrations of test compound. Reactions were initiated by addition of enzyme to buffered solutions of substrate and inhibitor.

[2] = reference compounds (markers) of the permeability assay; cited from earlier work

human cathepsin L, sequence (P07711 114-333): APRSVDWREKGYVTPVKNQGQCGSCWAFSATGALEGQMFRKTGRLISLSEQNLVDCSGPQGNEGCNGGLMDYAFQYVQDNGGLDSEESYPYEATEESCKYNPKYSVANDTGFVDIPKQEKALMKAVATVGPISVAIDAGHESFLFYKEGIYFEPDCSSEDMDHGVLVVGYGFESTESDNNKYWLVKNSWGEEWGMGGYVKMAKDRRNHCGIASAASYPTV

| Structure (SMILES) | Ki (human cathepsin L) [nM] | Ki (human cathepsin S) [nM] | Papp at 120 min, 10 uM [1] [×10⁻⁶ cm/s] | % absorption in man [2] [%] | also measured |
| --- | --- | --- | --- | --- | --- |
| CCC1OCC(=O)C1NC(=O)C1(NC(=O)c2ccc(-c3csc(N4CCN(C)CC4)n3)cc2)CCCCC1 (stereo not shown) [Example 2, N-[1-(2-Ethyl-4-oxo-tetrahydro-furan-3-ylcarbamoyl)-cyclohexyl]-4-[2-(4-methylpiperazin-1-yl)-thiazol-4-yl]-benzamide] | 120000 | 770000 | 36 | – | – |
| CCC1OCC(=O)C1NC(=O)C(CC(C)C)NC(=O)c1ccc(-c2csc(N3CCN(C)CC3)n2)cc1 (stereo not shown) [Example 3, N-[1-(2-Ethyl-4-oxo-tetrahydro-furan-3-ylcarbamoyl)-3-methyl-butyl]-4-[2-(4-methylpiperazin-1-yl)-thiazol-4-yl]-benzamide] | 500 | 1800 | 46 | – | Ki (cathepsin K): 1 nM |
| OC[C@@H](O)[C@@H](O)[C@H](O)[C@H](O)CO [Mannitol] | – | – | – | 16 | – |
| CN(Cc1cnc2nc(N)nc(N)c2n1)c1ccc(C(=O)N[C@@H](CCC(=O)O)C(=O)O)cc1 [Methotrexate] | – | – | – | 20 | – |
| CC(C)C[C@H](NC(=O)c1ccc(N2CCN(C)CC2)cc1)C(=O)N[C@H]1C(=O)CO[C@@H]1C [Prior art, reference compound] | – | – | – | – | Papp at 10 µM [1]: 1 ×10⁻⁶ cm/s |
